Data taken from patent US20190124918A1, “BIOFILM FORMATION INHIBITOR AND BIOFILM FORMATION INHIBITING COMPOSITION” (KAO CORPORATION, priority 2016, published 2019).

Assays:
[1] = tested on: Pseudomonas PAO1 strain (ATCC 15692); experiment: Growth of test microbe (turbidity OD600), 96-well microplate culture; type: cell-based; settings: Pseudomonas; for inhibition at 5 ppm: final concentration 5 ppm; for inhibition at 9 ppm: final concentration 9 ppm; for inhibition at 18 ppm: final concentration 18 ppm; for inhibition at 27 ppm: final concentration 27 ppm; for inhibition at 32 ppm: final concentration 32 ppm; for inhibition at 37 ppm: final concentration 37 ppm; for inhibition at 22 ppm: final concentration 22 ppm; for inhibition at 44 ppm: final concentration 44 ppm
Method: (§1) Pseudomonas PAO1 strain (ATCC 15692) was subjected to stationary culture performed in LB culture medium (Lysogeny Broth; manufactured by Becton Dickinson) at 37° C. for 24 hours. The turbidity (OD600) of the culture solution was measured. The culture solution was diluted with Mueller Hinton Broth (BBL made) to prepare a suspension (15 mL) having a turbidity (OD600) of 1/10^6.
To each of the wells of a 96-well microplate (351172; manufactured by Japan Becton Dickinson), 6 μL of DMSO (Tokyo Chemical Industry Co. Ltd) and an ethanol solution (1 μL, 3 μL or 5 μL) of a test compound were added. After that, the microplate was allowed to stand still at room temperature for 5 hours to evaporate ethanol. The suspension of Pseudomonas microbe prepared in the above step 1) was added in an amount of 145 μL per well and culture was initiated. As the test compound, 2-methylhydroquinone (Sigma Aldrich) and p-toluquinone (Tokyo Kasei) were used. As a reference compound, sodium hypochlorite (manufactured by Wako Pure Chemical Industries Ltd.) was used. As a control, an ethanol solvent (EtOH control) alone was used. The concentration of the test compound in the ethanol solution is 1,000 ppm or 10,000 ppm and the final concentration of the test compound in the culture solution was about from 7 to 333 ppm.
(§2) After the 96-well microplate was subjected to stationary culture performed at 30° C. for 24 hours, turbidity (OD600) was measured to check growth. Subsequently, individual wells were stained with 0.1% crystal violet and thoroughly washed twice with physiological saline. To each well, 200 μL of ethanol was added and the absorbance (OD570) was measured to obtain the amount of the biofilm formed.
Compounds listed in Table 3 were each added to a test microbe and culture was conducted by the same procedure as in Test Example 1 and the amount of growth (OD600) and the amount of biofilm formed (OD570) were measured. For compounds a, b, c, f, h, i, J and k, 20 mM ethanol solutions were prepared; whereas for compounds d, e, g, 5 mM ethanol solutions were prepared. The solutions were each added to a 96-well microplate in an amount of 1 to 8 μL and evaluation was made. The final concentrations of the individual compounds are described in Table 3.
(§3) Growth inhibition rates relative to the control (ethanol alone) were calculated based on OD600 values measured and in accordance with the following expression. In addition, biofilm (BF) formation inhibition rates relative to the control (ethanol alone) were calculated based on OD570 values and in accordance with the following expression:
Growth inhibition (%)=(1−(compound addition group OD600/control group OD600))×100
(§4) As a control, an ethanol solvent alone was used (EtOH control). The concentrations of test compounds in the ethanol solution were as follows: test compound 1: 20 mM, test compounds 2 to 7: 100 mM. To each of the wells of a 96-well microplate (351172; manufactured by Japan Becton Dickinson), 6 μL of DMSO (Tokyo Kasei) and an ethanol solution of each test compound (1 to 8 μL) were added and then the microplates were allowed to stand still at room temperature for 5 hours to evaporate ethanol. A suspension solution of a Pseudomonas microbe prepared in the same procedure as in Test Example 1, 1) was added in an amount of 145 μL per well and culture was initiated.
as §2, with “culture” for “culture performed”, “formed. The growth inhibition rate and biofilm (BF) formation inhibition rate were calculated based on OD600 and OD570 values measured and in accordance with the expressions used in Test Example 2.” for “formed.”

[2] = tested on: Pseudomonas PAO1 strain (ATCC 15692); experiment: Amount of biofilm formed (crystal violet, OD570), 96-well microplate culture; type: cell-based; settings: Pseudomonas, read-out: BF inhibition (%); for inhibition at 5 ppm: final concentration 5 ppm; for inhibition at 9 ppm: final concentration 9 ppm; for inhibition at 18 ppm: final concentration 18 ppm; for inhibition at 27 ppm: final concentration 27 ppm; for inhibition at 32 ppm: final concentration 32 ppm; for inhibition at 37 ppm: final concentration 37 ppm; for inhibition at 22 ppm: final concentration 22 ppm; for inhibition at 44 ppm: final concentration 44 ppm
Method: as §1, with “1/10^6. […]” for “1/10^6.”
as §3
BF inhibition (%)={1−(compound addition group OD570/control group OD570)}×100
as §4
as §2, with “culture” for “culture performed”, “formed. The growth inhibition rate and biofilm (BF) formation inhibition rate were calculated based on OD600 and OD570 values measured and in accordance with the expressions used in Test Example 2.” for “formed.”

In the case of `Cc1cc(O)cc(C)c1O` [d, 2,6-Dimethylhydroquinone], the inhibition at 5 ppm [1] is reported as under 0%, the inhibition at 9 ppm [1] is reported as 6.3% and the inhibition at 18 ppm [1] is reported as 0.8%. The inhibition at 27 ppm [1] was 6.6%, the inhibition at 32 ppm [1] was 14% and the inhibition at 37 ppm [1] was 5.4%. It also gave an inhibition at 5 ppm [2] of 12.7%, an inhibition at 9 ppm [2] of 11.2% and an inhibition at 18 ppm [2] of under 0%. It also gave an inhibition at 27 ppm [2] of 6.3%, an inhibition at 32 ppm [2] of 17.8% and an inhibition at 37 ppm [2] of 31.9%.
With `Cc1c(O)ccc(O)c1C` [e, 2,3-Dimethylhydroquinone] the inhibition at 5 ppm [1] was under 0%, the inhibition at 9 ppm [1] was 13.1% and the inhibition at 18 ppm [1] was 0.8%. It also gave an inhibition at 27 ppm [1] of under 0%, an inhibition at 32 ppm [1] of 14% and an inhibition at 37 ppm [1] of 5.4%. It also gave an inhibition at 5 ppm [2] of under 0%, an inhibition at 9 ppm [2] of under 0% and an inhibition at 18 ppm [2] of under 0%. The inhibition at 27 ppm [2] was 2.4%, the inhibition at 32 ppm [2] was 17.8% and the inhibition at 37 ppm [2] was 31.1%.
In the case of `CCc1cc(O)ccc1O` [f, Ethylquinol], the inhibition at 18 ppm [1] is reported as 2.1%, the inhibition at 37 ppm [1] is reported as 5.5% and the inhibition at 74 ppm ([1]; final concentration 74 ppm) is reported as under 0%. For the same compound, the inhibition at 110 ppm ([1]; final concentration 110 ppm) was under 0%, the inhibition at 129 ppm ([1]; final concentration 129 ppm) was under 0% and the inhibition at 147 ppm ([1]; final concentration 147 ppm) was under 0%. For the same compound, the inhibition at 18 ppm [2] was 18.6%, the inhibition at 37 ppm [2] was 31.1% and the inhibition at 74 ppm ([2]; final concentration 74 ppm) was 40.6%. The inhibition at 110 ppm ([2]; final concentration 110 ppm) was 50.8%, the inhibition at 129 ppm ([2]; final concentration 129 ppm) was 75.4% and the inhibition at 147 ppm ([2]; final concentration 147 ppm) was 78.9%.
For `Cc1cc(O)c(C)c(C)c1O` [g, 2,3,5-Trimethylhydroquinone], the inhibition at 5 ppm [1] was under 0%, the inhibition at 10 ppm ([1]; final concentration 10 ppm) was under 0% and the inhibition at 20 ppm ([1]; final concentration 20 ppm) was 0.1%. It also gave an inhibition at 30 ppm ([1]; final concentration 30 ppm) of 65.8%, an inhibition at 35 ppm ([1]; final concentration 35 ppm) of 67.5% and an inhibition at 41 ppm ([1]; final concentration 41 ppm) of 68.5%. It also gave an inhibition at 5 ppm [2] of 45.5%, an inhibition at 10 ppm ([2]; final concentration 10 ppm) of 42.2% and an inhibition at 20 ppm ([2]; final concentration 20 ppm) of 48%. The inhibition at 30 ppm ([2]; final concentration 30 ppm) was 54.7%, the inhibition at 35 ppm ([2]; final concentration 35 ppm) was 93.9% and the inhibition at 41 ppm ([2]; final concentration 41 ppm) was 90.4%.
For `Oc1ccc(O)c(O)c1` [h, Hydroxyhydroquinone], the inhibition at 17 ppm ([1]; final concentration 17 ppm) was 46.2%, the inhibition at 34 ppm ([1]; final concentration 34 ppm) was 18% and the inhibition at 67 ppm ([1]; final concentration 67 ppm) was 7.2%. For the same compound, the inhibition at 101 ppm ([1]; final concentration 101 ppm) was 1.7%, the inhibition at 118 ppm ([1]; final concentration 118 ppm) was 2% and the inhibition at 134 ppm ([1]; final concentration 134 ppm) was 5.4%. For the same compound, the inhibition at 17 ppm ([2]; final concentration 17 ppm) was 78.2%, the inhibition at 34 ppm ([2]; final concentration 34 ppm) was 96.2% and the inhibition at 67 ppm ([2]; final concentration 67 ppm) was 96.1%. It also gave an inhibition at 101 ppm ([2]; final concentration 101 ppm) of 96.3%, an inhibition at 118 ppm ([2]; final concentration 118 ppm) of 96.3% and an inhibition at 134 ppm ([2]; final concentration 134 ppm) of 96.4%.
`CC1=CC(=O)C=C(C)C1=O` [i, 3,5-Dimethylbenzoquinone] was tested, and the inhibition at 18 ppm [1] was 5.3%, the inhibition at 36 ppm ([1]; final concentration 36 ppm) was under 0% and the inhibition at 72 ppm ([1]; final concentration 72 ppm) was 29.7%. For the same compound, the inhibition at 109 ppm ([1]; final concentration 109 ppm) was 33.5%, the inhibition at 127 ppm ([1]; final concentration 127 ppm) was 33.7% and the inhibition at 145 ppm ([1]; final concentration 145 ppm) was 37.7%. The inhibition at 18 ppm [2] was 17.2%, the inhibition at 36 ppm ([2]; final concentration 36 ppm) was 26.2% and the inhibition at 72 ppm ([2]; final concentration 72 ppm) was 29.4%. It also gave an inhibition at 109 ppm ([2]; final concentration 109 ppm) of 54%, an inhibition at 127 ppm ([2]; final concentration 127 ppm) of 60.9% and an inhibition at 145 ppm ([2]; final concentration 145 ppm) of 55.8%.
Compound `CCCCc1cc(O)ccc1O` [j, 2-Butylhydroquinone] has an inhibition at 22 ppm [1] of 8.5%, an inhibition at 44 ppm [1] of under 0% and an inhibition at 89 ppm ([1]; final concentration 89 ppm) of 0.8%. It also gave an inhibition at 133 ppm ([1]; final concentration 133 ppm) of under 0%, an inhibition at 155 ppm ([1]; final concentration 155 ppm) of under 0% and an inhibition at 177 ppm ([1]; final concentration 177 ppm) of under 0%. It also gave an inhibition at 22 ppm [2] of 16.3%, an inhibition at 44 ppm [2] of 14.1% and an inhibition at 89 ppm ([2]; final concentration 89 ppm) of 42.1%. It also gave an inhibition at 133 ppm ([2]; final concentration 133 ppm) of 57.3%, an inhibition at 155 ppm ([2]; final concentration 155 ppm) of 63.9% and an inhibition at 177 ppm ([2]; final concentration 177 ppm) of 75.4%.
For `CC(C)(C)C1=CC(=O)C=CC1=O` [k, tert-Butylbenzoquinone], the inhibition at 22 ppm [1] was 8.9%, the inhibition at 44 ppm [1] was under 0% and the inhibition at 88 ppm ([1]; final concentration 88 ppm) was under 0%. The inhibition at 131 ppm ([1]; final concentration 131 ppm) was under 0%, the inhibition at 154 ppm ([1]; final concentration 154 ppm) was under 0% and the inhibition at 175 ppm ([1]; final concentration 175 ppm) was under 0%. The inhibition at 22 ppm [2] was under 0%, the inhibition at 44 ppm [2] was under 0% and the inhibition at 88 ppm ([2]; final concentration 88 ppm) was under 0%. It also gave an inhibition at 131 ppm ([2]; final concentration 131 ppm) of under 0%, an inhibition at 154 ppm ([2]; final concentration 154 ppm) of 26.2% and an inhibition at 175 ppm ([2]; final concentration 175 ppm) of 30.3%.
